Results from patent US7776858B2, “Methods of treatment of chronic pain using eszopiclone” (Sepracor Inc., priority 2004, dated 2010).

Experiments:
conscious dogs = assay: Dose escalation safety study, cardiovascular and respiratory parameters after acute intravenous administration
Protocol: To establish the safety of eszopiclone, a dose escalation study was carried out. Cardiovascular and respiratory parameters were evaluated in conscious dogs following acute intravenous administration of (R)-, (S)- or racemic zopiclone at three doses (3, 5 and 12 mg/kg).

mice = assay: Antagonism of oxotremorine induced salivation; format: in vivo; details: doses up to 300 mg/kg, p.o.
Protocol: Eszopiclone was evaluated for antimuscarinic activity in vivo.

[1] = acute intravenous, 3, 5 and 12 mg/kg

CN1CCN(C(=O)O[C@@H]2c3nccnc3C(=O)N2c2ccc(Cl)cn2)CC1 [(R)-Zopiclone]
hemodynamic effect (conscious dogs; acute intravenous, 12 mg/kg): did not produce a consistent hemodynamic effect | Blood gases and blood chemistries (pH, pCO2, pO2, hematocrit, and lactate) (conscious dogs; [1]): remained unaffected | cardiotoxicity by electrocardiogram (ECG) (conscious dogs; [1]): No evidence of cardiotoxicity | antagonism of oxotremorine induced salivation (mice): neither (R)-, (S)-, nor racemic zopiclone significantly antagonized
